# From patent US10611740B2, “Aryl dihydro-2H-benzo[b][1,4]oxazine sulfonamide and related compounds for use as agonists of RORγ and the treatment of disease” (Lycera Corporation, priority 2015, dated 2020)
# Columns and labels:
# RORγ-LBD = target: T1, RORγ-LBD (Homo sapiens, UniProt P51449); experiment: RORγ-Ligand Binding Domain (LBD) TR-FRET Assay; format: biochemical;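 as to TR-FRET Assay Max Response: 665/615 nm ratio relative to signal without ursolic acid or compound set at 100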
# T1 construct: made in house; host or cells: SF9 cells (baculovirus)
# T1 sequence (P51449 269-508 limits assumed): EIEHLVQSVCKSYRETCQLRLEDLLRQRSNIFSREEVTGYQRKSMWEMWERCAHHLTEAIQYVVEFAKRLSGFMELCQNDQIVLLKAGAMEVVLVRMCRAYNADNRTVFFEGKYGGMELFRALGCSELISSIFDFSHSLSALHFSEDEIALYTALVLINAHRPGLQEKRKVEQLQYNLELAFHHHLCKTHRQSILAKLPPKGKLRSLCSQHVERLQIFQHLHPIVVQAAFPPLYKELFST
# Procedure, shortened: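 His-tagged RORγ-LBD from SF9 baculovirus lysate, ~3 nM final, in 50 mM Tris pH 7.0, 50 mM KCl, 1 mM EDTA, 0.1 mM DTT, 0.01% BSA. Biotinylated SRC1 LXXLL peptide at 200 nM final with 2 μM ursolic acid; TR-FRET read-out, 1% DMSO final.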
# Gal4-RORγ-LBD = target: T2, Gal4-RORγ-LBD (Homo sapiens, UniProt P51449); experiment: Gal4-RORγ Luciferase Reporter Assay in HEK-293T Cells; format: cell-based; details: HEK-293 cells
# T2 construct: expressed in transfected cells; host or cells: HEK-293 cells (pcDNA3.1neo plasmid)
# T2 sequence (P51449 269-508 limits assumed): T1 sequence (P51449 269-508 limits assumed)
# Procedure, shortened: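 HEK-293 cells were transiently co-transfected with Gal4-RORγ-LBD and pGL4.31 Gal4-luciferase, with ursolic acid added at 2 μM final. Compounds were incubated overnight at 37° C. in 0.2% DMSO and luminescence read with One-Glo. Max Response is the upper plateau of a 4-parameter logistic fit, with signal lacking ursolic acid or compound set to 100.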
# [1] = luciferase reporter, with 2 μM ursolic acid
SMILES,EC50 (RORγ-LBD) [nM],EC50 (Gal4-RORγ-LBD; [1]) [nM],EC50 (Gal4-RORγ-LBD; 2 μM ursolic acid) [nM],TR-FRET Assay Max Response (RORγ-LBD),Gal4-RORγ Assay Max Response (Gal4-RORγ-LBD; [1]),Gal4-RORγ Assay Max Response (Gal4-RORγ-LBD; 2 μM ursolic acid)
"COc1cc(OC)cc(-c2ccc3c(c2)N(S(=O)(=O)c2cccc(C(F)(F)F)c2)C[C@H](CC(C)(C)C(=O)O)O3)c1 [Compound 32Q, (S)-3-(6-(3,5-dimethoxyphenyl)-4-((3-(trifluoromethyl)phenyl)-sulfonyl)-3,4-dihydro-2H-benzo[b][1,4]oxazin-2-yl)-2,2-dimethylpropanoic acid]",< 500,< 500,–,**** (The symbol “****” indicates a value greater than 200),** (The symbol “**” indicates a value in the range of greater than 90 to 150),–
"CC(C)(C[C@H]1CN(S(=O)(=O)c2cccc(C(F)(F)F)c2)c2cc(-c3cc(Cl)cc(OC(F)F)c3)ccc2O1)C(=O)O [Compound 32R, (S)-3-(6-(3-chloro-5-(difluoro-methoxy)phenyl)-4-((3-(trifluoro-methyl)phenyl)sulfonyl)-3,4-dihydro-2H-benzo[b][1,4]oxazin-2-yl)-2,2-dimethylpropanoic acid]",< 500,< 500,–,*** (The symbol “***” indicates a value in the range of greater than 150 to 200),** (The symbol “**” indicates a value in the range of greater than 90 to 150),–
"COc1cc(S(=O)(=O)N2C[C@H](CCC(C)(C)C(=O)O)Oc3ccc(-c4cc(F)cc(OC)c4F)cc32)ccc1F [Compound 32S, (S)-4-(6-(2,5-difluoro-3-methoxyphenyl)-4-((4-fluoro-3-methoxyphenyl)sulfonyl)-3,4-dihydro-2H-benzo[b][1,4]oxazin-2-yl)-2,2-dimethylbutanoic acid]",< 500,–,< 500,*** (The symbol “***” indicates a value in the range of greater than 150 to 200),–,** (The symbol “**” indicates a value in the range of greater than 90 to 150)
"CC(C)(CC[C@H]1CN(S(=O)(=O)c2cccc(OC(F)F)c2)c2cc(-c3cc(F)ccc3F)ccc2O1)C(=O)O [Compound 32T, (S)-4-(4-((3-(difluoro-methoxy)phenyl)sulfonyl)-6-(2,5-difluorophenyl)-3,4-dihydro-2H-benzo[b][1,4]oxazin-2-yl)-2,2-dimethylbutanoic acid]",< 500,–,< 500,*** (The symbol “***” indicates a value in the range of greater than 150 to 200),–,** (The symbol “**” indicates a value in the range of greater than 90 to 150)
"COc1cccc(-c2ccc3c(c2)N(S(=O)(=O)c2cccc(C(F)(F)F)c2)C[C@H](CC(C)(C)C(=O)O)O3)c1OC [Compound 32V, (S)-3-(6-(2,3-dimethoxyphenyl)-4-((3-(trifluoromethyl)phenyl)-sulfonyl)-3,4-dihydro-2H-benzo[b][1,4]oxazin-2-yl)-2,2-dimethylpropanoic acid]",< 500,–,< 500,*** (The symbol “***” indicates a value in the range of greater than 150 to 200),–,** (The symbol “**” indicates a value in the range of greater than 90 to 150)
"CC(C)(C[C@H]1CN(S(=O)(=O)c2cccc(C(F)(F)F)c2)c2cc(-c3cccc(Cl)c3)ccc2O1)C(=O)O [Compound 32W, (S)-3-(6-(3-chlorophenyl)-4-((3-(trifluoromethyl)phenyl)sulfonyl)-3,4-dihydro-2H-benzo[b][1,4]-oxazin-2-yl)-2,2-dimethyl-propanoic acid]",< 500,–,< 500,*** (The symbol “***” indicates a value in the range of greater than 150 to 200),–,** (The symbol “**” indicates a value in the range of greater than 90 to 150)
"CC(C)(C[C@H]1CN(S(=O)(=O)c2cccc(C(F)(F)F)c2)c2cc(-c3cc(F)cc(F)c3F)ccc2O1)C(=O)O [Compound 32X, (S)-2,2-dimethyl-3-(4-((3-(trifluoromethyl)phenyl)sulfonyl)-6-(2,3,5-trifluorophenyl)-3,4-dihydro-2H-benzo[b][1,4]oxazin-2-yl)propanoic acid]",< 500,–,< 500,*** (The symbol “***” indicates a value in the range of greater than 150 to 200),–,** (The symbol “**” indicates a value in the range of greater than 90 to 150)
"CC(C)(C[C@H]1CN(S(=O)(=O)c2cccc(C(F)(F)F)c2)c2cc(-c3cc(F)cc(Cl)c3)ccc2O1)C(=O)O [Compound 32Y, (S)-3-(6-(3-chloro-5-fluoro-phenyl)-4-((3-(trifluoromethyl)-phenyl)sulfonyl)-3,4-dihydro-2H-benzo[b][1,4]oxazin-2-yl)-2,2-dimethylpropanoic acid]",< 500,–,< 500,*** (The symbol “***” indicates a value in the range of greater than 150 to 200),–,** (The symbol “**” indicates a value in the range of greater than 90 to 150)
"CC(C)(C[C@H]1CN(S(=O)(=O)c2cccc(C(F)(F)F)c2)c2cc(-c3ccccc3OC(F)(F)F)ccc2O1)C(=O)O [Compound 32Z, (S)-2,2-dimethyl-3-(6-(2-(trifluoromethoxy)phenyl)-4-((3-(trifluoromethyl)phenyl)sulfonyl)-3,4-dihydro-2H-benzo[b][1,4]-oxazin-2-yl)propanoic acid]",< 500,–,< 500,*** (The symbol “***” indicates a value in the range of greater than 150 to 200),–,** (The symbol “**” indicates a value in the range of greater than 90 to 150)
"CN(C)c1cccc(-c2ccc3c(c2)N(S(=O)(=O)c2cccc(C(F)(F)F)c2)C[C@H](CCCOc2noc(=O)[nH]2)O3)n1 [Compound 35, (S)-3-(3-(6-(6-(dimethylamino)pyridin-2-yl)-4-((3-(trifluoromethyl)phenyl)sulfonyl)-3,4-dihydro-2H-benzo[b][1,4]oxazin-2-yl)propoxy)-1,2,4-oxadiazol-5(4H)-one]",< 500,< 500,–,**** (The symbol “****” indicates a value greater than 200),** (The symbol “**” indicates a value in the range of greater than 90 to 150),–

# Second part, led by results:
EC50 (RORγ-LBD) [nM],EC50 (Gal4-RORγ-LBD; [1]) [nM],EC50 (Gal4-RORγ-LBD; 2 μM ursolic acid) [nM],SMILES,TR-FRET Assay Max Response (RORγ-LBD),Gal4-RORγ Assay Max Response (Gal4-RORγ-LBD; [1]),Gal4-RORγ Assay Max Response (Gal4-RORγ-LBD; 2 μM ursolic acid)
< 500,< 500,–,"O=S(=O)(c1cccc(C(F)(F)F)c1)N1C[C@H](CCCO)Oc2ccc(-c3ccc(F)cc3F)cc21 [Compound 34A, (S)-3-(6-(2,4-difluorophenyl)-4-((3-(trifluoromethyl)phenyl)-sulfonyl)-3,4-dihydro-2H-benzo[b][1,4]oxazin-2-yl)propan-1-ol]",**** (The symbol “****” indicates a value greater than 200),* (The symbol “*” indicates a value in the range of 25 to 90),–
< 500,< 500,–,"O=S(=O)(c1cccc(C(F)(F)F)c1)N1C[C@H](CCCO)Oc2ccc(-c3ccc(F)c(F)c3)cc21 [Compound 34B, (S)-3-(6-(3,4-difluorophenyl)-4-((3-(trifluoromethyl)phenyl)-sulfonyl)-3,4-dihydro-2H-benzo[b][1,4]oxazin-2-yl)propan-1-ol]",**** (The symbol “****” indicates a value greater than 200),* (The symbol “*” indicates a value in the range of 25 to 90),–
< 500,< 500,–,"O=S(=O)(c1cccc(C(F)(F)F)c1)N1C[C@H](CCCO)Oc2ccc(-c3cc(F)cc(F)c3)cc21 [Compound 34C, (S)-3-(6-(3,5-difluorophenyl)-4-((3-(trifluoromethyl)phenyl)-sulfonyl)-3,4-dihydro-2H-benzo[b][1,4]oxazin-2-yl)propan-1-ol]",**** (The symbol “****” indicates a value greater than 200),** (The symbol “**” indicates a value in the range of greater than 90 to 150),–
< 500,< 500,–,"O=S(=O)(c1cccc(C(F)(F)F)c1)N1C[C@H](CCCO)Oc2ccc(-c3cccc(Cl)c3)cc21 [Compound 34D, (S)-3-(6-(3-chlorophenyl)-4-((3-(trifluoromethyl)phenyl)sulfonyl)-3,4-dihydro-2H-benzo[b][1,4]-oxazin-2-yl)propan-1-ol]",**** (The symbol “****” indicates a value greater than 200),** (The symbol “**” indicates a value in the range of greater than 90 to 150),–
< 500,< 500,–,"O=c1[nH]c(OCCC[C@H]2CN(S(=O)(=O)c3cccc(C(F)(F)F)c3)c3cc(-c4cc(F)cc(F)c4)ccc3O2)no1 [Compound 36A, (S)-3-(3-(6-(3,5-difluoro-phenyl)-4-((3-(trifluoro-methyl)phenyl)sulfonyl)-3,4-dihydro-2H-benzo[b][1,4]-oxazin-2-yl)propoxy)-1,2,4-oxadiazol-5(4H)-one]",**** (The symbol “****” indicates a value greater than 200),**** (The symbol “****” indicates a value greater than 200),–
